# Laboratory results published in patent US20260151453A1, “COMBINATION THERAPY FOR THE TREATMENT OF CANCER” (PEPTOMYC, S.L., priority 2022, published 2026).
# Experiments:
# [1] = test system: MIA-PACA-2 cells; assay: Viability of PDAC MIA-PACA-2 cells treated alone and in combination for 5 days; synergy score by SynergyFinder.org; format: cell-based; conditions: MIA-PACA-2, single agent, 5 days (FIG. 2)
# Source text: Synergy scores can be interpreted as the average excess response due to drug interactions. Synergy scores close to 0 give limited confidence in synergy or antagonism. So, when the synergy scores are: less than −10, the interaction between two drugs is likely to be antagonistic. From −10 to 10, the interaction between two drugs is likely to be additive. Greater than 10, the interaction between two drugs is likely to be synergistic.
# Pancreatic ductal adenocarcinoma (PDAC) MIA-PACA-2 cells were treated with increasing concentrations of Olaparib and the Omomyc peptide sequence SEQ ID NO: 4 alone and in combination, for 5 days.
# Then synergy score was calculated by SynergyFinder.org after having carried out 3 biological replicates as described above.
# [2] = test system: SUM149 cell-derived xenograft (CDX); assay: SUM149 cell-derived xenograft (CDX) model, orthotopic in mammary fat-pad, tumour growth; format: in vivo; conditions: SUM149 CDX mice, 4 weeks; Omomyc 50 mg/kg intravenous once a week; Olaparib 50 mg/kg oral gavage 6 times a week; preliminary
# Protocol: SUM149 cell-derived xenograft (CDX) model mice were used for in vivo studies. Each mouse was inoculated orthotopically in the mammary fat-pad with 5 million cells. As the tumours reached 100 mm^3, mice were randomised in 4 treatment groups. Specifically, mice were treated with Omomyc once a week (50 mg/kg, intravenous), with Olaparib 6 times a week (50 mg/kg oral gavage), with the combination of the 2 drugs (combo) or with vehicle alone for 4 weeks. Relative volume was calculated as a percentage of tumour growth from the day of randomization and beginning of treatments. At end-point the average of the groups were respectively: vehicle 901.8%, Omomyc 663.6%, Olaparib 623.6%, and combination 335.8%.
compound,measurement,setting,value
"O=C(c1cc(Cc2n[nH]c(=O)c3ccccc23)ccc1F)N1CCN(C(=O)C2CC2)CC1 [Olaparib, reference compound]",sensitivity of the cell line to the single agent (viability),[1],particularly resistant
same,"Relative volume, percentage of tumour growth from the day of randomization (group average at end-point)",[2],623.6%
